The NIST ThermoML archive (doi:10.1016/j.fluid.2010.03.010)

Details: for surface tension liquid-gas: Wilhelmg Plate Tensimeter; for mass density: Liquid, Vibrating tube method

CCOS(=O)(=O)[O-].CCn1cc[n+](C)c1 [1-ethyl-3-methylimidazolium ethyl sulfate]
Details | surface tension liquid-gas [mN/m]
292.91 K | 47.16
298.26 K | 46.9
303 K | 46.59
308.61 K | 46.35
313.41 K | 46.12
322.71 K | 45.5
332.09 K | 45.08

Details | mass density [kg/m3]
293.15 K, 100 kPa | 1241.3
293.15 K, 101.33 kPa | 1241.37
293.15 K, 250 kPa | 1241.4
293.15 K, 500 kPa | 1241.4
293.15 K, 1000 kPa | 1241.7
293.15 K, 1990 kPa | 1242.1
293.15 K, 4990 kPa | 1243.3
293.15 K, 10010 kPa | 1245.3
293.15 K, 14990 kPa | 1247.2
293.15 K, 20000 kPa | 1249.2
293.15 K, 24990 kPa | 1251.1
293.15 K, 30010 kPa | 1253
293.15 K, 35000 kPa | 1254.8
293.15 K, 40000 kPa | 1256.6
293.15 K, 45000 kPa | 1258.4
293.15 K, 50000 kPa | 1260.2
293.15 K, 55000 kPa | 1262
293.15 K, 60000 kPa | 1263.7
294.15 K, 101.33 kPa | 1240.67
295.15 K, 101.33 kPa | 1239.97
296.15 K, 101.33 kPa | 1239.28
297.15 K, 101.33 kPa | 1238.58
298.15 K, 101.33 kPa | 1237.88
299.15 K, 101.33 kPa | 1237.19
300.15 K, 101.33 kPa | 1236.5
301.15 K, 101.33 kPa | 1235.81
302.15 K, 101.33 kPa | 1235.12
303.15 K, 100 kPa | 1234.3
303.15 K, 101.33 kPa | 1234.43
303.15 K, 250 kPa | 1234.4
303.15 K, 500 kPa | 1234.5
303.15 K, 1000 kPa | 1234.7
303.15 K, 2010 kPa | 1235.1
303.15 K, 4990 kPa | 1236.3
303.15 K, 10010 kPa | 1238.4
303.15 K, 14990 kPa | 1240.4
303.15 K, 20000 kPa | 1242.4
303.15 K, 24990 kPa | 1244.3
303.15 K, 30010 kPa | 1246.3
303.15 K, 35010 kPa | 1248.1
303.15 K, 40000 kPa | 1250
303.15 K, 45000 kPa | 1251.8
303.15 K, 50000 kPa | 1253.6
303.15 K, 55000 kPa | 1255.4
303.15 K, 60000 kPa | 1257.1
304.15 K, 101.33 kPa | 1233.74
305.15 K, 101.33 kPa | 1233.05
306.15 K, 101.33 kPa | 1232.37
307.15 K, 101.33 kPa | 1231.69
308.15 K, 101.33 kPa | 1231
309.15 K, 101.33 kPa | 1230.32
310.15 K, 101.33 kPa | 1229.64
311.15 K, 101.33 kPa | 1228.96
312.15 K, 101.33 kPa | 1228.28
313.15 K, 100 kPa | 1227.5
313.15 K, 101.33 kPa | 1227.61
313.15 K, 250 kPa | 1227.5
313.15 K, 500 kPa | 1227.6
313.15 K, 2000 kPa | 1228.3
313.15 K, 4990 kPa | 1229.5
313.15 K, 10010 kPa | 1231.7
313.15 K, 14990 kPa | 1233.7
313.15 K, 20000 kPa | 1235.7
313.15 K, 25000 kPa | 1237.6
313.15 K, 30010 kPa | 1239.6
313.15 K, 35000 kPa | 1241.5
313.15 K, 40000 kPa | 1243.4
313.15 K, 44990 kPa | 1245.3
313.15 K, 50000 kPa | 1247.1
313.15 K, 54990 kPa | 1248.9
313.15 K, 60000 kPa | 1250.7
314.15 K, 101.33 kPa | 1226.93
315.15 K, 101.33 kPa | 1226.25
316.15 K, 101.33 kPa | 1225.58
317.15 K, 101.33 kPa | 1224.9
318.15 K, 101.33 kPa | 1224.23
319.15 K, 101.33 kPa | 1223.56
320.15 K, 101.33 kPa | 1222.89
321.15 K, 101.33 kPa | 1222.21
322.15 K, 101.33 kPa | 1221.54
323.15 K, 100 kPa | 1220.7
323.15 K, 101.33 kPa | 1220.88
323.15 K, 250 kPa | 1220.8
323.15 K, 500 kPa | 1220.9
323.15 K, 1010 kPa | 1221.1
323.15 K, 2010 kPa | 1221.6
323.15 K, 4990 kPa | 1222.9
323.15 K, 10010 kPa | 1225
323.15 K, 14990 kPa | 1227.1
323.15 K, 20010 kPa | 1229.1
323.15 K, 25000 kPa | 1231.1
323.15 K, 30010 kPa | 1233.1
323.15 K, 35000 kPa | 1235.1
323.15 K, 40000 kPa | 1237
323.15 K, 45000 kPa | 1238.9
323.15 K, 50000 kPa | 1240.8
323.15 K, 55000 kPa | 1242.6
323.15 K, 60000 kPa | 1244.5
324.15 K, 101.33 kPa | 1220.21
325.15 K, 101.33 kPa | 1219.54
326.15 K, 101.33 kPa | 1218.87
327.15 K, 101.33 kPa | 1218.21
328.15 K, 101.33 kPa | 1217.54
329.15 K, 101.33 kPa | 1216.88
330.15 K, 101.33 kPa | 1216.21
331.15 K, 101.33 kPa | 1215.55
332.15 K, 101.33 kPa | 1214.89
333.15 K, 100 kPa | 1214.1
333.15 K, 101.33 kPa | 1214.23
333.15 K, 250 kPa | 1214.1
333.15 K, 500 kPa | 1214.2
333.15 K, 1000 kPa | 1214.4
333.15 K, 2010 kPa | 1214.9
333.15 K, 5000 kPa | 1216.2
333.15 K, 10010 kPa | 1218.4
333.15 K, 14990 kPa | 1220.5
333.15 K, 20000 kPa | 1222.7
333.15 K, 24990 kPa | 1224.7
333.15 K, 30000 kPa | 1226.7
333.15 K, 34990 kPa | 1228.7
333.15 K, 40000 kPa | 1230.7
333.15 K, 45020 kPa | 1232.6
333.15 K, 50000 kPa | 1234.5
333.15 K, 54990 kPa | 1236.4
333.15 K, 60000 kPa | 1238.3
334.15 K, 101.33 kPa | 1213.56
335.15 K, 101.33 kPa | 1212.9
336.15 K, 101.33 kPa | 1212.24
337.15 K, 101.33 kPa | 1211.58
338.15 K, 101.33 kPa | 1210.92
339.15 K, 101.33 kPa | 1210.26
340.15 K, 101.33 kPa | 1209.6
341.15 K, 101.33 kPa | 1208.95
